PubChem BioAssay (NCI)
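Exposure lasted 48 hours, with cells grown in 96-well plates and compounds tested at five concentrations. Abbreviation: GI50, concentration required for 50% inhibition of growth. Definition used: TGI = concentration required for complete inhibition of growth.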

Assays:
Test in all cases: growth of human tumour cells (NCI), 48 h; in the data active = GI50 below about 0.43 µM; inactive = the rest
786-0 renal = tested on: 786-0 renal
A498 renal = tested on: A498 renal
A549 NSCLC = tested on: A549 NSCLC
ACHN renal = tested on: ACHN renal
BT-549 breast = tested on: BT-549 breast
CAKI-1 renal = tested on: CAKI-1 renal
CCRF-CEM leukemia = tested on: CCRF-CEM leukemia
DU-145 prostate = tested on: DU-145 prostate
EKVX NSCLC = tested on: EKVX NSCLC
HCC-2998 colon = tested on: HCC-2998 colon
HL-60(TB) leukemia = tested on: HL-60(TB) leukemia
HOP-62 NSCLC = tested on: HOP-62 NSCLC
HOP-92 NSCLC = tested on: HOP-92 NSCLC
HS 578T breast = tested on: HS 578T breast
HT29 colon = tested on: HT29 colon
IGROV1 ovarian = tested on: IGROV1 ovarian
KM12 colon = tested on: KM12 colon
LOX IMVI melanoma = tested on: LOX IMVI melanoma
M14 melanoma = tested on: M14 melanoma
MALME-3M melanoma = tested on: MALME-3M melanoma
MCF7 breast = tested on: MCF7 breast
MDA-MB-231 breast = tested on: MDA-MB-231 breast
MDA-MB-435 = tested on: MDA-MB-435
MOLT-4 leukemia = tested on: MOLT-4 leukemia
NCI-H226 lung = tested on: NCI-H226 lung
NCI-H23 lung = tested on: NCI-H23 lung
NCI-H460 lung = tested on: NCI-H460 lung
NCI/ADR-RES ovarian = tested on: NCI/ADR-RES ovarian
OVCAR-4 ovarian = tested on: OVCAR-4 ovarian
OVCAR-5 ovarian = tested on: OVCAR-5 ovarian
PC-3 prostate = tested on: PC-3 prostate
RPMI-8226 leukemia = tested on: RPMI-8226 leukemia
RXF 393 renal = tested on: RXF 393 renal
SF-268 CNS = tested on: SF-268 CNS
SF-295 CNS = tested on: SF-295 CNS
SF-539 CNS = tested on: SF-539 CNS
SK-MEL-28 melanoma = tested on: SK-MEL-28 melanoma
SK-MEL-5 melanoma = tested on: SK-MEL-5 melanoma
SK-OV-3 ovarian = tested on: SK-OV-3 ovarian
SN12C renal = tested on: SN12C renal
SNB-19 CNS = tested on: SNB-19 CNS
SNB-75 CNS = tested on: SNB-75 CNS
SR leukemia = tested on: SR leukemia
SW-620 colon = tested on: SW-620 colon
T-47D breast = tested on: T-47D breast
TK-10 renal = tested on: TK-10 renal
U251 CNS = tested on: U251 CNS
UACC-257 melanoma = tested on: UACC-257 melanoma
UACC-62 melanoma = tested on: UACC-62 melanoma
UO-31 renal = tested on: UO-31 renal
COLO 205 colon = tested on: COLO 205 colon
HCT-116 colon = tested on: HCT-116 colon
HCT-15 colon = tested on: HCT-15 colon
K-562 leukemia = tested on: K-562 leukemia
OVCAR-8 ovarian = tested on: OVCAR-8 ovarian
SK-MEL-2 melanoma = tested on: SK-MEL-2 melanoma

Cc1ccc(-c2csc(N/N=C/c3nc4ccccc4n3C3CC3)n2)cc1
46.5 µM: TGI (HCC-2998 colon)
8.33 µM: TGI (U251 CNS)
21.1 µM: TGI (SF-268 CNS)
3.84 µM: TGI (MALME-3M melanoma)
27.5 µM: TGI (SF-539 CNS)
4.39 µM: TGI (MCF7 breast)
4.38 µM: TGI (HL-60(TB) leukemia)
4.46 µM: TGI (RXF 393 renal)
36.4 µM: TGI (LOX IMVI melanoma)
11.4 µM: TGI (SK-MEL-5 melanoma)
33.6 µM: TGI (A498 renal)
61 µM: TGI (NCI-H23 lung)
57 µM: TGI (HS 578T breast)
26.9 µM: TGI (A549 NSCLC)
3.42 µM: TGI (DU-145 prostate)
39.5 µM: TGI (OVCAR-5 ovarian)
4.71 µM: TGI (RPMI-8226 leukemia)
16 µM: TGI (786-0 renal)
3.08 µM: TGI (ACHN renal)
4.75 µM: TGI (MOLT-4 leukemia)
79.4 µM: TGI (SNB-19 CNS)
5.27 µM: TGI (T-47D breast)
3.33 µM: TGI (OVCAR-4 ovarian)
inactive: GI50 (786-0 renal) 4120 nM | GI50 (A498 renal) 14.4 µM | GI50 (A549 NSCLC) 5.55 µM | GI50 (ACHN renal) 1580 nM | GI50 (BT-549 breast) 4.47 µM | GI50 (CAKI-1 renal) 1520 nM | GI50 (CCRF-CEM leukemia) 2150 nM | GI50 (DU-145 prostate) 1830 nM | GI50 (EKVX NSCLC) 21 µM | GI50 (HCC-2998 colon) 16.2 µM | GI50 (HL-60(TB) leukemia) 1860 nM | GI50 (HOP-62 NSCLC) 3670 nM | GI50 (HOP-92 NSCLC) 1650 nM | GI50 (HS 578T breast) 11.7 µM | GI50 (HT29 colon) 1840 nM | GI50 (IGROV1 ovarian) 5.73 µM | GI50 (KM12 colon) 16.3 µM | GI50 (LOX IMVI melanoma) 4.61 µM | GI50 (M14 melanoma) 1750 nM | GI50 (MALME-3M melanoma) 1990 nM | GI50 (MCF7 breast) 1920 nM | GI50 (MDA-MB-231 breast) 10.6 µM | GI50 (MDA-MB-435) 10.5 µM | GI50 (MOLT-4 leukemia) 2180 nM | GI50 (NCI-H226 lung) 8.34 µM | GI50 (NCI-H23 lung) 20 µM | GI50 (NCI-H460 lung) 7.72 µM | GI50 (NCI/ADR-RES ovarian) 13.6 µM | GI50 (OVCAR-4 ovarian) 1.74 µM | GI50 (OVCAR-5 ovarian) 17.6 µM | GI50 (PC-3 prostate) 12 µM | GI50 (RPMI-8226 leukemia) 1950 nM | GI50 (RXF 393 renal) 1950 nM | GI50 (SF-268 CNS) 4.21 µM | GI50 (SF-295 CNS) 45.5 µM | GI50 (SF-539 CNS) 12.2 µM | GI50 (SK-MEL-28 melanoma) 1820 nM | GI50 (SK-MEL-5 melanoma) 2040 nM | GI50 (SK-OV-3 ovarian) 8.53 µM | GI50 (SN12C renal) 8.55 µM | GI50 (SNB-19 CNS) 5190 nM | GI50 (SNB-75 CNS) 1860 nM | GI50 (SR leukemia) 2020 nM | GI50 (SW-620 colon) 1620 nM | GI50 (T-47D breast) 2.14 µM | GI50 (TK-10 renal) 1.68 µM | GI50 (U251 CNS) 2720 nM | GI50 (UACC-257 melanoma) 1.51 µM | GI50 (UACC-62 melanoma) 16.5 µM | GI50 (UO-31 renal) 1600 nM
3.07 µM: TGI (CAKI-1 renal)
59.8 µM: TGI (KM12 colon)
3.9 µM: TGI (SNB-75 CNS)
3.35 µM: TGI (SK-MEL-28 melanoma)
31.5 µM: TGI (SN12C renal)
3.48 µM: TGI (HT29 colon)
23.6 µM: TGI (MDA-MB-435)
3.13 µM: TGI (HOP-92 NSCLC)
41.4 µM: TGI (MDA-MB-231 breast)
> 100 µM: TGI (NCI-H226 lung) | TGI (NCI/ADR-RES ovarian) | TGI (SF-295 CNS) | TGI (SK-OV-3 ovarian)
3.29 µM: TGI (SW-620 colon)
3.05 µM: TGI (TK-10 renal) | TGI (UO-31 renal)
35.9 µM: TGI (IGROV1 ovarian)
5.63 µM: TGI (SR leukemia)
17.6 µM: TGI (BT-549 breast)
31 µM: TGI (UACC-62 melanoma)
27.1 µM: TGI (NCI-H460 lung)
2930 nM: TGI (UACC-257 melanoma)
55.9 µM: TGI (EKVX NSCLC)
49.7 µM: TGI (HOP-62 NSCLC)
3.43 µM: TGI (M14 melanoma)
5.39 µM: TGI (CCRF-CEM leukemia)
25.7 µM: TGI (PC-3 prostate)

CCC1=Cc2c(OC)cccc2OC12C=Cc1c(OC)cccc1O2 (stereo not drawn)
8.79 µM: TGI (HOP-92 NSCLC)
6.03 µM: TGI (SK-MEL-2 melanoma)
6.22 µM: TGI (BT-549 breast)
13.2 µM: TGI (HCC-2998 colon)
9.03 µM: TGI (SF-539 CNS)
inactive: GI50 (786-0 renal) 1840 nM | GI50 (A498 renal) 1.3 µM | GI50 (A549 NSCLC) 1.52 µM | GI50 (ACHN renal) 2850 nM | GI50 (BT-549 breast) 1.61 µM | GI50 (CAKI-1 renal) 858 nM | GI50 (CCRF-CEM leukemia) 551 nM | GI50 (COLO 205 colon) 1310 nM | GI50 (DU-145 prostate) 2140 nM | GI50 (EKVX NSCLC) 4.74 µM | GI50 (HCC-2998 colon) 2.58 µM | GI50 (HCT-116 colon) 436 nM | GI50 (HCT-15 colon) 469 nM | GI50 (HL-60(TB) leukemia) 507 nM | GI50 (HOP-62 NSCLC) 1660 nM | GI50 (HOP-92 NSCLC) 1000 nM | GI50 (HS 578T breast) 2.55 µM | GI50 (HT29 colon) 508 nM | GI50 (IGROV1 ovarian) 2.5 µM | GI50 (K-562 leukemia) 463 nM | GI50 (KM12 colon) 0.519 µM | GI50 (LOX IMVI melanoma) 1.6 µM | GI50 (M14 melanoma) 570 nM | GI50 (MALME-3M melanoma) 3790 nM | GI50 (MDA-MB-231 breast) 2.03 µM | GI50 (MOLT-4 leukemia) 2390 nM | GI50 (NCI-H226 lung) 2.84 µM | GI50 (NCI-H23 lung) 2.93 µM | GI50 (NCI-H460 lung) 2.57 µM | GI50 (NCI/ADR-RES ovarian) 0.678 µM | GI50 (OVCAR-4 ovarian) 47.4 µM | GI50 (OVCAR-5 ovarian) 1.84 µM | GI50 (OVCAR-8 ovarian) 2150 nM | GI50 (PC-3 prostate) 1.73 µM | GI50 (RPMI-8226 leukemia) 2870 nM | GI50 (RXF 393 renal) 990 nM | GI50 (SF-268 CNS) 3.09 µM | GI50 (SF-295 CNS) 1.01 µM | GI50 (SF-539 CNS) 1.57 µM | GI50 (SK-MEL-2 melanoma) 1220 nM | GI50 (SK-MEL-28 melanoma) > 100000 nM | GI50 (SK-MEL-5 melanoma) 1240 nM | GI50 (SK-OV-3 ovarian) 2.93 µM | GI50 (SN12C renal) 0.94 µM | GI50 (SNB-19 CNS) 646 nM | GI50 (SNB-75 CNS) 1310 nM | GI50 (SW-620 colon) 707 nM | GI50 (T-47D breast) 16.3 µM | GI50 (TK-10 renal) 24.5 µM | GI50 (U251 CNS) 1090 nM | GI50 (UACC-257 melanoma) 7.48 µM | GI50 (UACC-62 melanoma) 0.53 µM | GI50 (UO-31 renal) 2400 nM
32.4 µM: TGI (KM12 colon)
active: GI50 (MCF7 breast) 414 nM
22 µM: TGI (M14 melanoma)
6.51 µM: TGI (OVCAR-8 ovarian)
73.2 µM: TGI (MDA-MB-231 breast)
3.7 µM: TGI (COLO 205 colon)
8.33 µM: TGI (SK-MEL-5 melanoma)
3.76 µM: TGI (HT29 colon)
9.27 µM: TGI (SNB-75 CNS)
7.29 µM: TGI (RXF 393 renal)
> 100 µM: TGI (786-0 renal) | TGI (A549 NSCLC) | TGI (ACHN renal) | TGI (CAKI-1 renal) | TGI (CCRF-CEM leukemia) | TGI (DU-145 prostate) | TGI (EKVX NSCLC) | TGI (HCT-116 colon) | TGI (HCT-15 colon) | TGI (HL-60(TB) leukemia) | TGI (HOP-62 NSCLC) | TGI (HS 578T breast) | TGI (IGROV1 ovarian) | TGI (K-562 leukemia) | TGI (LOX IMVI melanoma) | TGI (MALME-3M melanoma) | TGI (MCF7 breast) | TGI (MOLT-4 leukemia) | TGI (NCI-H23 lung) | TGI (NCI/ADR-RES ovarian) | TGI (OVCAR-4 ovarian) | TGI (OVCAR-5 ovarian) | TGI (PC-3 prostate) | TGI (RPMI-8226 leukemia) | TGI (SF-268 CNS) | TGI (SF-295 CNS) | TGI (SK-MEL-28 melanoma) | TGI (SK-OV-3 ovarian) | TGI (SN12C renal) | TGI (SNB-19 CNS) | TGI (SW-620 colon) | TGI (T-47D breast) | TGI (TK-10 renal) | TGI (U251 CNS) | TGI (UACC-62 melanoma) | TGI (UO-31 renal)
52.1 µM: TGI (NCI-H226 lung)
> 100000 nM: TGI (UACC-257 melanoma)
14.2 µM: TGI (NCI-H460 lung)
4.17 µM: TGI (A498 renal)
